In this test the target is T1, recombinant human mPGES-1 (Homo sapiens, UniProt O14684).
T1 sequence (O14684 1-152): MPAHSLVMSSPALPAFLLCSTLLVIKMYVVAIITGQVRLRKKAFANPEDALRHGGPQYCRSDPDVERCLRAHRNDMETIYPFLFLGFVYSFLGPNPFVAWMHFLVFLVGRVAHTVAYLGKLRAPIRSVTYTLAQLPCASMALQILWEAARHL
Put plainly: Assay B: mPGES-1 enzyme assay (modified). It counts as biochemical. Particulars: biological assay B (all other compounds); PGH2 final conc. 2 μM, HTRF; read-out: mPGES-1 inhibitory effect IC50. The protocol:
Assay B: mPGES-1 Enzyme Assay (Modified)
The aim of this assay is to determine the affinity of a test compound for the mPGES-1 enzyme.
47 μl of recombinant human mPGES-1 (˜0.5 μg protein/well) containing microsomal suspension in a buffer containing GSH, (2.5 mmol/L L-Glutathione reduced, dissolved in 0.1 mol/L Phosphat Buffer pH 7.4) is dispensed in a 384-well plate and thereafter 1 μl of the test compound(s) is/are added and incubated for 25 minutes at room temperature. The enzyme reaction is started by the addition of 2 ul PGH2 (final conc. 2 μM) dissolved in water-free Diglyme. After 60 seconds the reaction is terminated by addition of a stop solution containing FeCl2 (10 μL 0.074 mol/l FeCl2). The samples are diluted between 1:25 in PBS (Phosphate Buffered Saline). 10 μl of the diluted samples are transferred to 384-well low volume plate. In order to quantify the amount of PGE2 that has been formed, a homogenous time resolved fluorescent (HTRF) detecting of PGE2 has been performed using a commercially available kit from Cisbio according to the manufactures recommendation. This HTRF-based assay has been described in detail (see: Goedken et al., J Biomol Screen, 2008, 13(7), 619-625). Briefly, the diluted samples are mixed with […] PGE2-d2 conjugate and 5 μl anti-PGE2 cryptate conjugate. After an incubation period of the plates over night, the fluorescence is measured by the use of an appropriate microplate reader.
The fluorescence of Europium cryptate (maxex=307 nm, maxem=620 nm) and d2-PGE2 (maxex=620 nm, maxem=665 nm) are measured.
The extent of the specific HTRF is measured as a ratio of the emission intensity at 665 nm vs. that at 620 nm at an excitation pulse of 320 nm. The quantification plate contains also wells with different concentrations of PGE2 as calibration curve for the calculation of the PGE2 concentrations from the HTRF ratio values.
From all mPGES enzyme assay the background is subtracted and the IC50 is calculated over a nonlinear regression with conventional software.
On the technique in general: In TR-FRET formats the signal depends on donor and acceptor labels being close together.

The IC50 is the concentration at which inhibition is half-maximal.

Take `CC(C)(C)C(=O)NCc1ccc(Cl)c(C(=O)Nc2ccc(N3CCC(F)CC3)c(C(=O)Nc3ccc(Br)cc3)c2)c1Cl` [Example 61]: the IC50 was 5 nM.
Next, `CC(C)(C)C(=O)NCc1ccc(F)c(C(=O)Nc2ccc(OCC(F)F)c(C(=O)N[C@H]3CC[C@H](C(F)(F)F)CC3)c2)c1F` [Example 50]: 34 nM; `Cc1nc(C(=O)NCc2ccc(Cl)c(C(=O)Nc3ccc(OCC(F)F)c(C(=O)Nc4ccc(Br)cc4)c3)c2)c(C)s1` [Example 168]: 105 nM.
Next, `CN1CCC[C@H]1C(=O)NCc1ccc(Cl)c(C(=O)Nc2ccc(OCC(F)F)c(C(=O)Nc3ccc(Br)cc3)c2)c1` [Example 161]: 13 nM; `CC(C)(C(=O)NCc1ccc(Cl)c(C(=O)Nc2ccc(OCC(F)F)c(C(=O)NC3CCCOC3)c2)c1)C(F)(F)F` (centres unmarked) [Example 123]: 48 nM.
Take `CC(C)(C)C(=O)NCc1ccc(Cl)c(C(=O)Nc2ccc(N3CCCC(C(F)(F)F)C3)c(C(=O)Nc3ccc(Br)cc3)c2)c1Cl` (centres unmarked) [Example 180]: the IC50 worked out at 2 nM.
On to `CC(C)(C(=O)NCc1ccc(Cl)c(C(=O)Nc2ccc(OCC(F)F)c(C(=O)NCCC(F)(F)F)c2)c1)C(F)(F)F` [Example 115], for which the IC50 was found to be 15 nM.
Next, `CC(C)NC(=O)c1cc(NC(=O)c2cc(CNC(=O)C(C)(C)C(F)(F)F)ccc2Cl)ccc1OCC(F)F` [Example 110]: 17 nM; `CC(NC(=O)c1cc(NC(=O)c2cc(CNC(=O)C(C)(C)C(F)(F)F)ccc2Cl)ccc1OCC(F)F)C1CC1` (centres unmarked) [Example 135]: 7 nM.
The value for `CC(C)(C(=O)NCc1ccc(Cl)c(C(=O)Nc2ccc(OC3CCOC3)c(C(=O)Nc3ccc(Br)cc3)c2)c1)C(F)(F)F` (centres unmarked) [Example 69] was 4 nM.
The value for `CC(C)(C(=O)NCc1ccc(Cl)c(C(=O)Nc2ccc(OCC(F)F)c(C(=O)Nc3ccc(Br)c(F)c3)c2)c1)C(F)(F)F` [Example 133] was 6 nM.
For the compound `CC(C)(C(=O)NCc1ccc(Cl)c(C(=O)Nc2ccc(OCC(F)F)c(C(=O)Nc3cccc(Cl)c3)c2)c1Cl)C(F)(F)F` [Example 150], the IC50 amounted to 2 nM.
Next, `CC(C)(C(=O)NCc1ccc(Cl)c(C(=O)Nc2ccc(OCC(F)F)c(C(=O)NC3CCSCC3)c2)c1)C(F)(F)F` [Example 90]: 9 nM.
Consider `CC(C)(C(=O)NCc1ccc(Cl)c(C(=O)Nc2ccc(OCC(F)F)c(C(=O)Nc3ccc(Cl)cc3Cl)c2)c1)C(F)(F)F` [Example 94], for which the IC50 was determined as 6 nM.
Next, `CC(C)(C)C(=O)NCc1ccc(F)c(C(=O)Nc2ccc(F)c(C(=O)Nc3ccc(Br)cc3)c2)c1F` [Example 49, N-[4-Fluoro-3-(4-bromophenyl)aminocarbonyl-phenyl]-2,6-difluoro-3-(tert-butylcarbonylamino)methyl-benzamide]: 120 nM; `CC(C)(C(=O)NCc1ccc(Cl)c(C(=O)Nc2ccc(OCC(F)F)c(C(=O)NC3CC4CCC3C4)c2)c1)C(F)(F)F` (centres unmarked) [Example 124]: 5 nM; `COC(C)(C)C(=O)NCc1ccc(Cl)c(C(=O)Nc2ccc(OCC(F)F)c(C(=O)Nc3ccc(Br)cc3)c2)c1` [Example 160]: 7 nM.
The value for `O=C(Nc1ccc(OC2CCOC2)c(C(=O)N[C@H]2CC[C@H](C(F)(F)F)CC2)c1)c1cc(CNC(=O)C2(C(F)(F)F)CC2)ccc1Cl` (some centres unmarked) [Example 68] was 9 nM; that for `CC(C)(C)C(=O)NCc1ccc(Cl)c(C(=O)Nc2cnc(OCC(F)F)c(C(=O)Nc3ccc(Cl)c(F)c3)c2)c1Cl` [Example 76] was 12 nM.
The value for `CC(C)(C(=O)NCc1ccc(Cl)c(C(=O)Nc2ccc(OCC(F)F)c(C(=O)NC3CCC(CO)CC3)c2)c1)C(F)(F)F` (centres unmarked) [Example 103] was 237 nM.
As for `CC(C)(C)C(=O)NCc1ccc(F)c(C(=O)Nc2cnc(OCC(F)F)c(C(=O)Nc3ccc(Br)cc3)c2)c1F` [Example 74], the IC50 is 47 nM.
The value for `CC(C)(C(=O)NCc1ccc(Cl)c(C(=O)Nc2ccc(OCC(F)F)c(C(=O)NCc3ncccc3C(F)(F)F)c2)c1)C(F)(F)F` [Example 138] was 5 nM; that for `CC(C)(C(=O)NCc1ccc(Cl)c(C(=O)Nc2ccc(OCC(F)F)c(C(=O)Nc3ccncn3)c2)c1)C(F)(F)F` [Example 118] was 98 nM.
On to `CC(C)(C(=O)NCc1ccc(Cl)c(C(=O)Nc2ccc(OCC(F)F)c(C(=O)Nc3cc(F)cc(Cl)c3)c2)c1)C(F)(F)F` [Example 113], for which the IC50 turned out to be 4 nM.
Regarding `COc1cc(NC(=O)c2cc(NC(=O)c3cc(CNC(=O)C(C)(C)C(F)(F)F)ccc3Cl)ccc2OCC(F)F)ccc1Br` [Example 120], the IC50 was 7 nM.
As for `CC1CCC(NC(=O)c2cc(NC(=O)c3cc(CNC(=O)C(C)(C)C(F)(F)F)ccc3Cl)ccc2OCC(F)F)CC1` (centres unmarked) [Example 96], the IC50 came out at 5 nM.
Next, `CC(C)(C(=O)NCc1ccc(Cl)c(C(=O)Nc2ccc(OCC(F)F)c(C(=O)Nc3ccc(Cl)c(Cl)c3)c2)c1)C(F)(F)F` [Example 125]: 5 nM; `CC1(C(=O)NCc2ccc(Cl)c(C(=O)Nc3ccc(OCC(F)F)c(C(=O)Nc4ccc(Br)cc4)c3)c2)CCCO1` (centres unmarked) [Example 163]: 6 nM; `CC(C)(C(=O)NCc1ccc(Cl)c(C(=O)Nc2ccc(OCC(F)F)c(C(=O)Nc3ccncc3Cl)c2)c1)C(F)(F)F` [Example 137]: 9 nM.
Next, `CC(C)C(O)C(=O)NCc1ccc(Cl)c(C(=O)Nc2ccc(OCC(F)F)c(C(=O)Nc3ccc(Br)cc3)c2)c1` (centres unmarked) [Example 175]: 9 nM; `CC(C)(C)C(=O)NCc1ccc(F)c(C(=O)Nc2ccc(OCC(F)F)c(C(=O)Nc3ccc(Br)cc3)c2)c1Cl` [Example 44, N-[4-(2,2-Difluoroethyl)oxy-3-(4-bromophenyl)aminocarbonyl-phenyl]-6-fluor-2-chlor-3-(tert-butylcarbonylamino)methyl-benzamide]: 15 nM; `CC(NC(=O)c1cc(NC(=O)c2cc(CNC(=O)C(C)(C)C(F)(F)F)ccc2Cl)ccc1OCC(F)F)C(F)(F)F` (centres unmarked) [Example 99]: 7 nM.
For the compound `O=C(Nc1ccc(OCC(F)F)c(C(=O)Nc2ccc(Br)cc2)c1)c1cc(CNC(=O)C2CCCN2c2nccs2)ccc1Cl` (centres unmarked) [Example 164], the IC50 was 79 nM.
Next, `CC(C)(C(=O)NCc1ccc(Cl)c(C(=O)Nc2ccc(OCC(F)F)c(C(=O)NC3CCc4ccccc4C3)c2)c1)C(F)(F)F` (centres unmarked) [Example 85]: 6 nM; `CC(C)(C)C(=O)NCc1ccc(Cl)c(C(=O)Nc2ccc(N3CC(F)(F)C3)c(C(=O)Nc3ccc(Br)cc3)c2)c1` [Example 60, N-[4-(3,3-Difluoro-azetidin-1-yl)-3-(4-bromphenyl)aminocarbonyl-phenyl]-2-chloro-5-(tert-butylcarbonylamino)methyl-benzamide]: 26 nM.
Turning to `COCCOc1ccc(NC(=O)c2cc(CNC(=O)C(C)(C)C(F)(F)F)ccc2Cl)cc1C(=O)N[C@H]1CC[C@H](C(F)(F)F)CC1` [Example 64], the IC50 is 4 nM.
Next, `CC(C)(C)C(=O)NCc1ccc(Cl)c(C(=O)Nc2ccc(N[C@H]3CC[C@H](C(F)(F)F)CC3)c(C(=O)N[C@H]3CC[C@H](C(F)(F)F)CC3)c2)c1` [Example 56, N-[4-(trans-4-trifluoromethylcyclohexyl)amino-3-[trans-(4-trifluoromethylcyclohexyl)amino]carbonyl-phenyl]-2-chloro-5-(tert-butylcarbonylamino)methyl-benzamide]: 128 nM; `CC(C)(C(=O)NCc1ccc(Cl)c(C(=O)Nc2ccc(OCC(F)F)c(C(=O)Nc3ccc(Br)cc3)c2)c1Cl)C(F)(F)F` [Example 47, N-[4-(2,2-Difluoroethyl)oxy-3-(4-bromophenyl)aminocarbonyl-phenyl]-2,6-dichloro-3-(2,2,2-trifluoro-1,1-dimethyl-ethyl)carbonylaminomethyl-benzamide]: 6 nM; `CC(C)(C(=O)NCc1ccc(Cl)c(C(=O)Nc2ccc(OCC(F)F)c(C(=O)Nc3ccnc4ccccc34)c2)c1)C(F)(F)F` [Example 131]: 9 nM.
Next, `COCC1(CNC(=O)c2cc(NC(=O)c3cc(CNC(=O)C(C)(C)C(F)(F)F)ccc3Cl)ccc2OCC(F)F)CCCC1` [Example 88]: 9 nM; `CC(C)(C(=O)NCc1ccc(Cl)c(C(=O)Nc2ccc(OCC(F)F)c(C(=O)N[C@H]3CC[C@H](C(F)(F)F)CC3)c2)c1)C(F)(F)F` [Example 82, N-[4-(2,2-difluoroethyl)oxy-3-(trans-4-trifluoromethylcyclohexyl)aminocarbonyl-phenyl]-2-chloro-5-[(2,2,2-trifluoro-1,1-dimethyl-ethyl)carbonylamino}methyl-benzamide]: 8 nM.

The record behind these values is US8951999B2, “Compounds” (Orexo AB, priority 2009, dated 2015).
